{"source": "patent US20060122147A1", "about": "“Combination preparation of hyaluronic acid and at least oe local anesthetic and the use thereof” (priority 2002, published 2006)", "details": "37° C., diffusion time 4 h, lidocaine 0.05% (hya 0.25% where present) in donor compartment", "note": "Where two headings read alike, the source gives them in different places."}
{"smiles": "CCN(CC)CC(=O)Nc1c(C)cccc1C", "note": "[lidocaine]", "values": [{"measurement": "Flux", "setting": "pH 3.1", "result": 0.32, "unit": "mg h^−1 cm^−2"}, {"measurement": "Flux", "setting": "pH 6.0", "result": 0.355, "unit": "mg h^−1 cm^−2"}, {"measurement": "Flux", "setting": "pH 6.5", "result": 0.315, "unit": "mg h^−1 cm^−2"}, {"measurement": "Flux", "setting": "pH 6.9", "result": 0.42, "unit": "mg h^−1 cm^−2"}, {"measurement": "Flux", "setting": "pH 7.7", "result": 0.35, "unit": "mg h^−1 cm^−2"}, {"measurement": "Flux", "setting": "pH 9.0", "result": 0.09, "unit": "mg h^−1 cm^−2"}]}
